Measured values published in patent publication US20150065421A1, “BASAL INSULIN THERAPY” (SANOFI, priority 2012, published 2015).

Test system: people at high risk for vascular disease with either IFG, IGT, or early type 2 diabetes
Assay: ORIGIN trial: glycemic control (FPG, A1C)
Format: in vivo, human
Description: Participants were asked to self-administer daily subcutaneous saline injections and to check their capillary glucose levels during a 10 day run-in period. Adherent participants were then provided with lifestyle advice and randomly allocated to either insulin glargine (Lantus™) or standard approaches to glycaemic control. Participants allocated to insulin glargine who were also taking a thiazolidinedione stopped that medication at the time of randomization; otherwise the insulin glargine was added to their glycemic regimen. These participants were instructed to inject insulin glargine in the evening, starting at 2, 4 or 6 units (depending on their initial FPG) and to increase the dose at least once per week targeting a self-measured FPG level ≦5.3 mmol/l (95 mg/dl) and ≧4 mmol/l (72 mg/dl). […] If participants developed uncontrolled hyperglycemia, investigators were permitted to add rapid-acting insulin. No other glucose-lowering medication could be added or increased. FPG levels were measured in the local laboratory at every visit and the results were regularly reviewed along with the dose of insulin to ensure that insulin was being effectively trirated. People not diagnosed with diabetes by the time of the penultimate study visit down-titrated insulin glargine by 10 units per day and stopped any metformin that was prescribed.
Outcomes and other data were collected at scheduled study visits at 0.5, 1, 2, and 4 months after randomization and every 4 months thereafter. Weight, waist and hip circumference were measured annually. HbA1c levels were assayed in local laboratories at every visit for the first year and then annually in people without diabetes and every 4 months for people with diabetes. A first morning urine collection was sent centrally and assayed for creatinine and albumin at baseline, 2 yrs and study end.
Participants assigned to standard therapy continued their prior oral therapies and were managed according to the investigators' judgement and local guidelines for glycemic control and therapeutic approaches. Investigators were advised not to prescribe insulin for standard participants unless they were on full doses of 2 or more oral agents. If insulin was added glargine was not to be used. Participants assigned to basal insulin glargine who were taking a thiazolidinedione prior to randomization stopped this medication but continued to take other glucose-lowering agents. Insulin glargine (Lantus®, Sanofi) was added to their regimen starting at 2 to 6 units daily, based on fasting glucose levels. Participants were advised to inject the insulin in the evening and to self-titrate the dosage using a simple algorithm supported by the site investigators. Self-measured, plasma-referenced fasting capillary blood glucose tests were done at least twice-weekly to guide titration, with the goal of achieving and maintaining fasting glucose 5.3 mmol/l (≦95 mg/dl). Other oral agents could be continued, reduced, or discontinued as judged appropriate during treatment with insulin glargine. The only oral agent that could be added (if not previously used) was metformin, which the site investigator initiated for individual participants at doses of 500-1000 mg/day if judged necessary to limit the risk of hypoglycemia. The importance of lifestyle management was continuously reinforced in both treatment groups.
In addition to self-measured glucose tests, venous blood for measurement of fasting plasma glucose (FPG) and A1C at local laboratories was collected at intervals during treatment. In the case of A1C, measurements were done at baseline, yearly thereafter, and at the end of treatment for all participants. Measurements of FPG were done annually and at the end of treatment for all participants in the glargine treatment group, and at baseline, after 2 years, and at the end of treatment for those using standard therapy. […]

[1] = fully adjusted logistic regression, glargine vs standard care, p<0.001
[2] = participants with diabetes, 2 years
[3] = participants with diabetes, 5 years
[4] = participants with diabetes, 7 years
[5] = participants without diabetes, 5 years
[6] = without diabetes at entry, throughout randomized treatment, both regimens

(Gly A21) Arg (B31) Arg (B32) human insulin [insulin glargine]
A1c (%), median (interquartile range) (Year 1, baseline 6.4): 5.9 (5.5, 6.4) %
FPG (mM), median (interquartile range) (Year 1, baseline 6.9): 5.2 (4.6, 5.9) mM
A1c (%), median (interquartile range) (Year 2): 6.0 (5.5, 6.5) %
FPG (mM), median (interquartile range) (Year 2): 5.0 (4.4, 5.8) mM
A1c (%), median (interquartile range) (Year 3): 6.0 (5.6, 6.6) %
FPG (mM), median (interquartile range) (Year 3): 5.0 (4.4, 5.7) mM
A1c (%), median (interquartile range) (Year 4): 6.1 (5.7, 6.7) %
FPG (mM), median (interquartile range) (Year 4): 5.1 (4.5, 5.8) mM
A1c (%), median (interquartile range) (Year 5): 6.2 (5.7, 6.8) %
FPG (mM), median (interquartile range) (Year 5): 5.1 (4.5, 6.0) mM
A1c (%), median (interquartile range) (Year 6): 6.3 (5.8, 6.8) %
FPG (mM), median (interquartile range) (Year 6): 5.2 (4.6, 6.1) mM
A1c (%), median (interquartile range) (Year 7): 6.2 (5.8, 7.1) %
FPG (mM), median (interquartile range) (Year 7): 5.2 (4.5, 6.3) mM
increase in the likelihood of maintaining mean A1C below 6.5% for 5 years (allocation to basal insulin glargine vs standard care): 2-3 fold
participants achieving a FPG level ≦5.2 mmol/l (by 1 year, maintained throughout the trial): 50%
participants achieving A1C <6.5% (diabetic subgroup, 1 year, 47% before treatment): 74%
participants achieving A1C <7.0% (diabetic subgroup, 1 year, 66% before treatment): 88%
participants achieving A1C <7.0% (diabetic subgroup, 5 years): 77%
participants achieving A1C <6.5% (diabetic subgroup, after 5 years): 60%
people achieving FPG levels below 5.3 mmol/l (95 mg/dl) (for most of the trial): more than 50%
people achieving FPG levels ≦6.0 mmol/l (108 mg/dl) (for most of the trial): 75%
OR (95% CI), 1-year A1C 6.5% (attainment) [1]: 2.50 (2.29-2.74)
OR (95% CI), 1-year A1C 7.0% (attainment) [1]: 2.735 (2.440-3.067)
OR (95% CI), 5-year mean A1C 6.5% (maintenance) [1]: 2.98
OR (95% CI), 5-year mean A1C 7.0% (maintenance) [1]: 2.408 (2.122-2.732)
OR (95% CI), 5-year mean A1C 6.5% (maintenance) (fully adjusted logistic regression, glargine vs standard care, p<0.001, listed as Glargine): 2.975 (2.671-3.315)
median A1C (inter-quartile range) (participants with diabetes, 1 year, baseline 6.5): 6.0 (5.5-6.5) %
median FPG (inter-quartile range) (participants with diabetes, 1 year, baseline 7.2): 5.2 (4.6-5.9) mmol/l
median A1C (inter-quartile range) [2]: 6.0 (5.6-6.6) %
median FPG (inter-quartile range) [2]: 5.0 (4.4-5.8) mmol/l
median A1C (inter-quartile range) [3]: 6.3 (5.8-6.9) %
median FPG (inter-quartile range) [3]: 5.1 (4.5-6.1) mmol/l
median A1C (inter-quartile range) [4]: 6.3 (5.8-6.9) %
median FPG (inter-quartile range) [4]: 5.3 (4.5-6.4) mmol/l
median A1C (participants without diabetes, 1 year, baseline 5.7): 5.6%
median FPG (inter-quartile range) (participants without diabetes, 1 year, baseline 6.1): 5.0 (4.5-5.5) mmol/l
median FPG (inter-quartile range) (participants without diabetes, 2 years): 4.9 (4.5-5.5) mmol/l
median A1C [5]: 5.8%
median FPG (inter-quartile range) [5]: 5.0 (4.5-5.7) mmol/l
median FPG (inter-quartile range) (participants without diabetes, 7 years): 5.1 (4.5-5.8) mmol/l
participants achieving A1C <6.5% [6]: more than 75%
participants achieving A1C <7.0% [6]: more than 90%
